Assays:
[1] = biological target: T1, human α1a adrenergic receptor (Homo sapiens, UniProt P35348); test: Radioligand binding ([3H]prazosin) at cloned human α1a adrenergic receptor; details: LM(tk-) cell membranes, read-out: Binding affinities (pKi) α1a (converted)
T1 construct: The entire coding region of α1a (1401 bp); expressed in transfected cells
T1 sequence (P35348 1-466): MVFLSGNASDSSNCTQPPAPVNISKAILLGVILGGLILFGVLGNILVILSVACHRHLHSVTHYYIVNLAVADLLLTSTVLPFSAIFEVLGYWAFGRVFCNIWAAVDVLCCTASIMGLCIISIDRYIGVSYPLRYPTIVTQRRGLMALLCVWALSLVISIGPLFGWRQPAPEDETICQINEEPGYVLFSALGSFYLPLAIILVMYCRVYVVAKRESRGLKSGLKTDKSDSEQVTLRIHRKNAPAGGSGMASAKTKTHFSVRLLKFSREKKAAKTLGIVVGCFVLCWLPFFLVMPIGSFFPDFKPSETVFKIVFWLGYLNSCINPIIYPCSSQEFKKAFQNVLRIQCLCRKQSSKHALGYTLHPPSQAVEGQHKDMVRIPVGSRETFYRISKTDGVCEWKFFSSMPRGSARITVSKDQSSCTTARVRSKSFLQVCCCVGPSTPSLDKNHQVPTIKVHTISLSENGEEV
Procedure: (§1) First, conditions were determined which allowed measurement of the specific binding of a compound known to bind to the receptor. Then, the binding of the known compound to the receptor in membrane preparations was evaluated in the presence of several different concentrations of the test compound.
(§2) These cell lines were prepared by transfecting the cloned cDNA or cloned genomic DNA or constructs containing both genomic DNA and cDNA encoding the human receptors as described below.
The construct involved ligating three partial overlapping fragments: a 5′0.6 kb HincII genomic clone, a central 1.8 EcoRI hippocampal cDNA clone, and a 3′0.6 Kb PstI genomic clone. The hippocampal cDNA fragment overlaps with the 5′ and 3′ genomic clones so that the HincII and PstI sites at the 5′ and 3′ ends of the cDNA clone, respectively, were utilized for ligation. This full-length clone was cloned into the KpnI site of the expression vector, using the 5′ and 3′ KpnI sites of the fragment, derived from vector (i.e., pBluescript) and 3′-untranslated sequences, respectively. Stable cell lines were selected as described above. Membranes were harvested and assayed for their ability to bind [^3H]prazosin as described below (see Radioligand Binding assays).
(§3) Radioligand Binding Assays for α1 Human Adrenergic Receptors: Transfected cells from culture flasks were scraped into 5 ml of 5 mM Tris-HCl, 5 mM EDTA, pH 7.5, and lysed by sonication. The cell lysates were centrifuged at 1000 rpm for 5 min at 4° C., and the supernatant was centrifuged at 30,000×g for 20 min at 4° C. The pellet was suspended in 50 mM Tris-HCl, 1 mM MgCl2, and 0.1% ascorbic acid at pH 7.5. Binding of the α1, antagonist [^3H]prazosin (0.5 nM, specific activity 76.2 Ci/mmol) to membrane preparations of LM(tk-) cells was done in a final volume of 0.25 ml and incubated at 37° C. for 1 hour. Nonspecific binding was determined in the presence of 10 μM phentolamine. The reaction was stopped by filtration through GF/B filters using a cell harvester.

[2] = biological target: T2, human α1d adrenergic receptor (Homo sapiens, UniProt P25100); test: Radioligand binding ([3H]prazosin) at cloned human α1d adrenergic receptor; details: LM(tk-) cell membranes, read-out: Binding affinities (pKi) α1d (converted)
T2 construct: The entire coding region. of α1d (1719 bp); expressed in transfected cells
T2 sequence (P25100 1-572): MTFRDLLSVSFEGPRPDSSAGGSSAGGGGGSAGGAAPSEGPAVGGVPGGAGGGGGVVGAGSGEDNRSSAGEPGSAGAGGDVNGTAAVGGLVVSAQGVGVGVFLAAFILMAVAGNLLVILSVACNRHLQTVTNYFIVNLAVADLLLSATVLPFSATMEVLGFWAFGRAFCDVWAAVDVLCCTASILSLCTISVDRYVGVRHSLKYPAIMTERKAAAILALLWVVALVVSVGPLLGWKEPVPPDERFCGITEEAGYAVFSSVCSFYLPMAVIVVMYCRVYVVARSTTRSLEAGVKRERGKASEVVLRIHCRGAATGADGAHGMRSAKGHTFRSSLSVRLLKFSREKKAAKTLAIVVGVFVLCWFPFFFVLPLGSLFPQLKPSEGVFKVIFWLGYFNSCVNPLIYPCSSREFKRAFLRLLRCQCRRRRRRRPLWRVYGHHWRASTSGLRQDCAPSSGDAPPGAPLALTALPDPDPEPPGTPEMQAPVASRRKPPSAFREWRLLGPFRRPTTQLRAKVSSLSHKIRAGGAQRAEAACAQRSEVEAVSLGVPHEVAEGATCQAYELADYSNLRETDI
Procedure: as §1, §2
α1d Human Adrenergic Receptor: The entire coding region. of α1d (1719 bp), including 150 base pairs of 5′ untranslated sequence (5′ UT) and 300 bp of 3′ untranslated sequence (3′ UT), was cloned into the BamHI and ClaI sites of the polylinker-modified eukaryotic expression vector pCEXV-3, called EXJ.HR. The construct involved the ligation of partial overlapping human lymphocyte genomic and hippocampal cDNA clones: 5′ sequence were contained on a 1.2 kb SmaI-XhoI genomic fragment (the vector-derived BamHI site was used for subcloning instead of the internal insert-derived SmaI site) and 3′ sequences were contained on a 1.3 kb XhoI-ClaI cDNA fragment (the ClaI site was from the vector polylinker). Stable cell lines were obtained by cotransfection with the plasmid α1A/EXJ (expression vector containing the α1a receptor gene (old nomenclature)) and the plasmid pGCcos3neo (plasmid containing the aminoglycoside transferase gene) into LM(tk-) cells using the calcium phosphate technique. The cells were grown, in a controlled environment (37° C., 5% CO2), as monolayers in Dulbecco's modified Eagle's Medium (GIBCO, Grand Island, N.Y.) containing 25 mM glucose and supplemented with 10% bovine calf serum, 100 units/ml penicillin g, and 100 μg/ml streptomycin sulfate. Stable clones were then selected for resistance to the antibiotic G-418 (1 mg/ml), and membranes were harvested and assayed for their ability to bind [^3H]prazosin as described below (see Radioligand Binding assays).
The cell line expressing the human α1d receptor used herein was designated L-α1A (old nomenclature) and was deposited with the American Type Culture Collection, 12301 Parklawn Drive, Rockville, Md. 20852, U.S.A. under the provisions of the Budapest Treaty for the International Recognition of the Deposit of Microorganisms for the Purposes of Patent Procedure. The cell line expressing the human α1d receptor, was accorded ATCC Accession No. CRL 11138, and was deposited on Sep. 25, 1992.
as §3

| SMILES | Ki [1] [nM] | Ki [2] [nM] |
| --- | --- | --- |
| Cc1ccc(Cl)cc1N1CCN(CCN2C(=O)CC3(CCCC3)CC2=O)CC1 [Compound 13, 8-{2-[4-(5-Chloro-2-methylphenyl)piperazino]ethyl}-8-azaspiro [4.5]decane-7,9-dione] | 7940 | 39.8 |
| COc1ccc(F)cc1C1CCN(CCN2C(=O)CC3(CCCC3)CC2=O)CC1 [Compound 12, 8-{2-[4-(5-Fluoro-2-methoxyphenyl)piperidin-1-yl]ethyl}-8-azaspiro[4.5]decane-7,9-dione] | 79.4 | 1 |
| C[C@H](CN1CCN(c2cc(F)ccc2F)CC1)N1C(=O)CC2(CCCC2)CC1=O [Compound 8, 8-{(1R)-2-[4-(2,5-Difluorophenyl)piperazin-1-yl]-1-methylethyl}-8-azaspiro[4.5]decane-7,9-dione] | 6310 | 0.794 |
| O=C1CC2(CCCC2)CC(=O)N1CCN1CCN(c2c(F)cccc2F)CC1 [Compound 14, 8-{2-[4-(2,6-Difluorophenyl)piperazino]ethyl}-8-azaspiro[4.5]decane-7,9-dione] | 3160 | 3.98 |
| O=C1CC2(CCCC2)CC(=O)N1CCN1CCN(c2cc(F)ccc2F)CC1 [Compound 6, 8-{2-[4-(2,5-Difluorophenyl)piperazin-1-yl]ethyl}-8-azaspiro[4.5]decane-7,9-dione] |  | 1 |
| O=C1CC2(CCCC2)CC(=O)N1CCN1CCN(c2ccc(F)c(F)c2)CC1 [Compound 15, 8-{2-[4-(3,4-Difluorophenyl)piperazin-1-yl]ethyl}-8-azaspiro[4.5]decane-7,9-dione] | 3980 | 7.94 |
| O=C1CC2(CCCC2)CC(=O)N1CCN1CCN(c2cc(F)c(F)cc2F)CC1 [Compound 7, 8-{2-[4-(2,4,5-Trifluorophenyl)piperazin-1-yl]ethyl}-8-azaspiro[4.5]decane-7,9-dione] | 3980 | 2 |
| C[C@@H](CN1CCN(c2cc(F)ccc2F)CC1)N1C(=O)CC2(CCCC2)CC1=O [Compound 10, 8-{(1S)-2-[4-(2,5-Difluorophenyl)piperazin-1-yl]-1-methylethyl}-8-azaspiro[4.5]decane-7,9-dione] | 7940 | 50.1 |

Source: US6706716B2, “Compounds specific for the human α1d adrenergic receptor and uses thereof” (Synaptic Pharmaceutical Corporation, priority 1998, dated 2004)
